Laboratory results: paper PMC9490236, “Accurate de novo design of membrane-traversing macrocycles” (Cell, 2022)
Values joined by “and” are separate entries in the source; they are usually repeats but may differ in a detail not shown here. Identical values can stand only once. Like-named read-outs stand apart in the source and are kept apart here. Where a SMILES comes first, the peptide text is derived from it. [ ]: non-standard residue; d: D form. dNMeI = CC[C@@H](C)[C@@H](NC)C(=O)O; NMeL = CN[C@@H](CC(C)C)C(=O)O

Assay: Pharmacokinetics and oral bioavailability of D11.3 in male Swiss albino mice (IV, PO, SQ)
Assay type: in vivo
Conditions: for MRT last: read-out: MRT0-last
Experimental: In vivo bioavailability assays were conducted in mice and rats. D8.3.p1 and D10.1 were studied in female Balb/C mice by van Voorhis group at University of Washington. D11.2 was evaluated in Sprague Dawley (SD) rats by Robert Griffin’s group at Takeda Pharmaceuticals. D11.3 was studied in the male swiss albino mice by the contract research organization, GVK Biosciences Pvt. Ltd., Hyderabad, India. All animals used in these studies were handled in strict accordance with practices made to minimize suffering. All animal experiments conducted at the University of Washington, USA, and Takeda Pharmaceuticals, USA were approved by the Institutional Animal Care and Use Committee. Animal studies at GVK Biosciences were reviewed and approved by the Institutional Animal Ethics Committee of GVK Biosciences.
We selected four designed macrocycles with diverse structures and in vitro rates of permeability for in vivo oral bioavailability studies in the rodent models. Due to the intensive resource requirements for such studies, these studies were conducted by three different research groups. D8.3.p1 and D10.1 were studied in female Balb/C mice by van Voorhis group at University of Washington. D11.2 was evaluated in Sprague Dawley (SD) rats by Robert Griffin’s group at Takeda Pharmaceuticals. D11.3 was studied in the male swiss albino mice by the contract research organization, GVK Biosciences Pvt. Ltd., Hyderabad, India.
Pharmacokinetic properties of D11.3 were evaluated by the contract research organization, GVK Bio in Swiss Albino male mice after dosing the peptides through oral gavage (PO), subcutaneous (SQ), and intravenous (IV) routes. Plasma samples were collected at multiple time points up to 24 hours. Animals were dosed with 27 gauge needle through tail vein for IV, gastric gavage needle for PO, and 27 gauge needle on dorsal side for SQ. Plasma concentrations were determined using LC-MS/MS based quantification. Pharmacokinetic parameters were determined using non-compartmental analysis with Phoenix software version 8.1.
Dosing vehicle: DMSO (10%) + 10% solutol in PBS (90%) (IV, PO, SQ)
Dose volume: […] (PO, SQ); […] (IV)
Dose: 10 mg/kg (PO) 1 mg/kg (IV), 5mg/kg (SQ)

[1] = male, Swiss albino, mouse, plasma, IV 1.00 mg/kg
[2] = male, Swiss albino, mouse, plasma, PO 10.00 mg/kg
[3] = male, Swiss albino, mouse, plasma, SC 5.00 mg/kg

Question: Which AUCExtra (IV 1.00 mg/kg) does the source give for `CC[C@@H](C)[C@H]1NC(=O)[C@H]([C@@H](C)CC)NC(=O)[C@H](CC(C)C)N(C)C(=O)[C@H]2CCCN2C(=O)[C@@H]([C@H](C)CC)NC(=O)[C@@H]([C@H](C)CC)N(C)C(=O)[C@H](CC(C)C)NC(=O)[C@H]2CCCN2C(=O)[C@@H]2CCCN2C(=O)[C@H](C(C)C)NC(=O)[C@H]2CCCN2C1=O` [Design D11.3, VAL PRO DPRO LEU *DILE DILE DPRO *LEU ILE DILE DPRO] (cyclo(I[dI][dP]VP[dP]L[dNMeI][dI][dP][NMeL])) here?
Answer: 3.09%

Question: And the Plasma concentration (IV 1.00 mg/kg, 0.25 h, individual mice M1, M2, M3, 1 mg/kg)?
Answer: 3305.02 ng/mL and 3779.15 ng/mL and 2973.54 ng/mL

Question: What about the Plasma concentration (IV 1.00 mg/kg, 1 h, individual mice M1, M2, M3, 1 mg/kg) of the same compound?
Answer: 931.71 ng/mL and 1218.22 ng/mL and 1283.47 ng/mL

Question: And the Plasma concentration (IV 1.00 mg/kg, 3 h, individual mice M1, M2, M3, 1 mg/kg)?
Answer: 887.86 ng/mL and 328.77 ng/mL and 318.62 ng/mL

Question: What about the Plasma concentration (IV 1.00 mg/kg, 5 h, individual mice M1, M2, M3, 1 mg/kg) of the same compound?
Answer: 240.02 ng/mL and 271.55 ng/mL and 289.17 ng/mL

Question: And the Plasma concentration (IV 1.00 mg/kg, 8 h, individual mice M1, M2, M3, 1 mg/kg)?
Answer: 399.46 ng/mL and 124.26 ng/mL and 182.53 ng/mL

Question: What about the Plasma concentration (IV 1.00 mg/kg, 24 h, individual mice M1, M2, M3, 1 mg/kg) of the same compound?
Answer: 17.65 ng/mL and 30.97 ng/mL and 34.16 ng/mL

Question: What about the “health of animals during the study” value (IV 1 mg/kg, PO 10 mg/kg, SQ 5 mg/kg) of the same compound?
Answer: healthy throughout the duration of the study

Question: And the AUCExtra (PO 10.00 mg/kg)?
Answer: 1.91%

Question: What about the Plasma concentration (PO 10.00 mg/kg, 0.08 h, individual mice M1, M2, M3, 10 mg/kg) of the same compound?
Answer: 47.49 ng/mL and 76.49 ng/mL and 84.94 ng/mL

Question: And the Plasma concentration (PO 10.00 mg/kg, 0.25 h, individual mice M1, M2, M3, 10 mg/kg)?
Answer: 454 ng/mL and 804.64 ng/mL and 992.29 ng/mL

Question: And the Plasma concentration (PO 10.00 mg/kg, 0.5 h, individual mice M1, M2, M3, 10 mg/kg)?
Answer: 2858.02 ng/mL and 2832.99 ng/mL and 1880.71 ng/mL

Question: What about the Plasma concentration (PO 10.00 mg/kg, 1 h, individual mice M1, M2, M3, 10 mg/kg) of the same compound?
Answer: 2950.38 ng/mL and 3417.67 ng/mL and 2525.44 ng/mL

Question: What about the Plasma concentration (PO 10.00 mg/kg, 3 h, individual mice M1, M2, M3, 10 mg/kg) of the same compound?
Answer: 3249.94 ng/mL and 3660.57 ng/mL and 3578.88 ng/mL

Question: And the Plasma concentration (PO 10.00 mg/kg, 5 h, individual mice M1, M2, M3, 10 mg/kg)?
Answer: 3313.72 ng/mL and 2427.94 ng/mL and 1866.9 ng/mL

Question: And the Plasma concentration (PO 10.00 mg/kg, 8 h, individual mice M1, M2, M3, 10 mg/kg)?
Answer: 1232.5 ng/mL and 1764.28 ng/mL and 1439.78 ng/mL

Question: What about the Plasma concentration (PO 10.00 mg/kg, 24 h, individual mice M1, M2, M3, 10 mg/kg) of the same compound?
Answer: 177.35 ng/mL and 48.47 ng/mL and 59.29 ng/mL

Question: What about the AUCExtra (SC 5.00 mg/kg) of the same compound?
Answer: 30.33%

Question: And the Plasma concentration (SC 5.00 mg/kg, 0.08 h, Mean)?
Answer: 10.15 ng/mL

Question: What about the Plasma concentration (SC 5.00 mg/kg, 0.25 h, Mean) of the same compound?
Answer: 35.04 ng/mL

Question: What about the Plasma concentration (SC 5.00 mg/kg, 0.5 h, Mean) of the same compound?
Answer: 38.67 ng/mL

Question: And the Plasma concentration (SC 5.00 mg/kg, 0.5 h, individual mice M1, M2, M3, 5 mg/kg)?
Answer: 23.29 ng/mL and 70.26 ng/mL and 22.46 ng/mL

Question: What about the Plasma concentration (SC 5.00 mg/kg, 1 h, individual mice M1, M2, M3, 5 mg/kg) of the same compound?
Answer: 52.72 ng/mL and 45.05 ng/mL and 34.59 ng/mL

Question: And the Plasma concentration (SC 5.00 mg/kg, 3 h, individual mice M1, M2, M3, 5 mg/kg)?
Answer: 141.22 ng/mL and 103.85 ng/mL and 139.25 ng/mL

Question: And the Plasma concentration (SC 5.00 mg/kg, 24 h, Mean)?
Answer: 50.51 ng/mL

Question: What about the level at 0.08 h (male, Swiss Albino, mouse, plasma, iv, 1 mg/kg, IV 1.00 mg/kg, 0.08 h, individual mice M1, M2, M3, read-out: Plasma concentration) of the same compound?
Answer: 3320 ng/mL

Question: What about the level at 0.5 h (male, Swiss Albino, mouse, plasma, iv, 1 mg/kg, IV 1.00 mg/kg, 0.5 h, individual mice M1, M2, M3, read-out: Plasma concentration) of the same compound?
Answer: 2570 ng/mL

Question: What about the level at 5 h (male, Swiss albino, mouse, plasma, sc, 5 mg/kg, SC 5.00 mg/kg, 5 h, individual mice M1, M2, M3, read-out: Plasma concentration) of the same compound?
Answer: 117 ng/mL

Question: What about the level at 8 h (male, Swiss albino, mouse, plasma, sc, 5 mg/kg, SC 5.00 mg/kg, 8 h, individual mice M1, M2, M3, read-out: Plasma concentration) of the same compound?
Answer: 153 ng/mL

Question: What about the AUC(0-inf) [1] of the same compound?
Answer: 7190 ng·h/mL

Question: What about the AUC(0-t) [1] of the same compound?
Answer: 6970 ng·h/mL

Question: What about the C0 [1] of the same compound?
Answer: 3960 ng/mL

Question: What about the Vd [1] of the same compound?
Answer: 1.12 L/kg

Question: And the clearance [1]?
Answer: 2.32 mL/min/kg

Question: And the AUC(0-inf) [2]?
Answer: 28800 ng·h/mL

Question: And the AUC(0-t) [2]?
Answer: 28200 ng·h/mL

Question: And the Cmax [2]?
Answer: 3500 ng/mL

Question: And the Tmax [2]?
Answer: 3 h

Question: And the bioavailability (male, Swiss albino, mouse, plasma, PO 10.00 mg/kg vs IV 1.00 mg/kg, read-out: F (oral bioavailability))?
Answer: 40% and 40.1%

Question: What about the AUC(0-inf) [3] of the same compound?
Answer: 3050 ng·h/mL

Question: And the AUC(0-t) [3]?
Answer: 2120 ng·h/mL

Question: And the Cmax [3]?
Answer: 148 ng/mL

Question: And the Tmax [3]?
Answer: 5 h

Question: What about the half-life (mouse, in vivo, IV 1.00 mg/kg) of the same compound?
Answer: 335 min

Question: What about the MRT last (mouse, in vivo, IV 1.00 mg/kg) of the same compound?
Answer: 4.64 h

Question: And the MRT last (mouse, in vivo, PO 10.00 mg/kg)?
Answer: 6.32 h

Question: What about the MRT last (mouse, in vivo, SC 5.00 mg/kg) of the same compound?
Answer: 10.7 h
